Test results reported in patent publication US20240383882A1 (Ecstasy LLC, priority 2020, published 2024).

Test system: male C57BL/6 mice
Assay: 55° C. warm-water tail-flick test (antinociception)
Assay type: in vivo
Conditions: Mus musculus; half maximal effective dose in mice; using one of: warm water tail-flick test, spared nerve injury, chronic constriction injury, or Complete Freund's adjuvant induced inflammatory pain (not stated which per compound); read-out: Biological Activity (ED50)
Summary of the method: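 Subcutaneous dosing, then tail immersion in 55° C water at 30–120 min; latency normalized as 100×(test−control)/(20−control), using a 20 s cutoff, after excluding mice not responding within 2 s at baseline. Values expressed as ED50 (mg/kg).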

With `COc1cccc(C(C)(C)N2CC[C@@](CCc3ccc(C#N)cc3)(C(N)=O)C2)c1` [Compound 148, (R)-3-(4-cyanophenethyl)-1-(2-(3-methoxyphenyl)propan-2-yl)pyrrolidine-3-carboxamide] as the molecule, how does the ED50 read?
The ED50 was greater than 50 mg/kg.

With `Cc1cccc(C(C)(C)N2CC[C@@](CCc3ccc(C#N)cc3)(C(N)=O)C2)n1` [Compound 149, (R)-3-(4-cyanophenethyl)-1-(2-(6-methylpyridin-2-yl)propan-2-yl)pyrrolidine-3-carboxamide] as the molecule, how does the ED50 read?
The ED50 was greater than 50 mg/kg.

Which ED50 does the source give for `CC(C)(c1ccccn1)N1CC[C@@](CCc2ccc(C#N)s2)(C(=O)C(F)(F)F)C1` [Compound 154, (R)-5-(2-(1-(2-(pyridin-2-yl)propan-2-yl)-3-(2,2,2-trifluoroacetyl)pyrrolidin-3-yl)ethyl)thiophene-2-carbonitrile] here?
The ED50 was greater than 50 mg/kg.

`CNC(=O)[C@]1(CCc2ccc(C#N)cc2)CCN(C(C)(C)c2ccccn2)C1` [Compound 155, (R)-3-(4-cyanophenethyl)-N-methyl-1-(2-(pyridin-2-yl)propan-2-yl)pyrrolidine-3-carboxamide] was tested. Which ED50 did it give?
The ED50 was no more than 30 mg/kg.

Which ED50 does the source give for `COc1cccc(C(C)(C)N2CC[C@](CO)(CCc3ccc(C#N)cc3)C2)n1` [Compound 157, (R)-4-(2-(3-(hydroxymethyl)-1-(2-(6-methoxypyridin-2-yl)propan-2-yl)pyrrolidin-3-yl)ethyl) benzonitrile] here?
Its ED50 is no more than 30 mg/kg.

For `COc1cccc(C(C)(C)N2CC[C@@](CCc3ccc(C#N)cc3)(C(=O)O)C2)n1` [Compound 158, (R)-3-(4-cyanophenethyl)-1-(2-(6-methoxypyridin-2-yl)propan-2-yl)pyrrolidine-3-carboxylic acid], which ED50 is on record?
The ED50 was greater than 50 mg/kg.

How did the ED50 turn out when `COc1cccc(C(C)(C)N2CC[C@@](CCc3ccc(C#N)cc3)(C(N)=O)C2)n1` [Compound 159, (R)-3-(4-cyanophenethyl)-1-(2-(6-methoxypyridin-2-yl)propan-2-yl)pyrrolidine-3-carboxamide] was run?
The ED50 was no more than 30 mg/kg.

For `CC(C)(c1ccccn1)N1CC[C@@](CCc2ccc(C#N)s2)(C(O)(C(F)(F)F)C(F)(F)F)C1` [Compound 160, (R)-5-(2-(3-(1,1,1,3,3,3-hexafluoro-2-hydroxypropan-2-yl)-1-(2-(pyridin-2-yl)propan-2-yl)pyrrolidin-3-yl)ethyl)thiophene-2-carbonitrile], which ED50 is on record?
The ED50 was greater than 50 mg/kg.

`CCOC(C(F)(F)F)(C(F)(F)F)[C@]1(CCc2ccc(C#N)s2)CCN(C(C)(C)c2ccccn2)C1` [Compound 161, (R)-5-(2-(3-(2-ethoxy-1,1,1,3,3,3-hexafluoropropan-2-yl)-1-(2-(pyridin-2-yl)propan-2-yl)pyrrolidin-3-yl)ethyl)thiophene-2-carbonitrile] was tested. Which ED50 did it give?
The ED50 was greater than 50 mg/kg.

Which ED50 does the source give for `CC(C)(c1ccccn1)N1CC[C@@](CCc2ccc(C#N)cc2)(CS(C)(=O)=O)C1` [Compound 162, (R)-4-(2-(3-((methylsulfonyl)methyl)-1-(2-(pyridin-2-yl)propan-2-yl)pyrrolidin-3-yl)ethyl) benzonitrile] here?
Its ED50 is greater than 50 mg/kg.

`CC(C)(c1ccccn1)N1CC[C@@](CCc2ccc3nonc3c2)(COCc2ccccc2)C1` [Compound 163, (R)-5-(2-(3-((benzyloxy)methyl)-1-(2-(pyridin-2-yl)propan-2-yl)pyrrolidin-3-yl)ethyl)benzo[c] [1,2,5]oxadiazole] was tested. Which ED50 did it give?
The ED50 was greater than 50 mg/kg.

With `CC(C)(c1ccccn1)N1CC[C@@](CCc2ccc3ccoc3c2)(COCc2ccccc2)C1` [Compound 164, (R)-2-(2-(3-(2-(benzofuran-6-yl)ethyl)-3-((benzyloxy)methyl)pyrrolidin-1-yl)propan-2-yl)pyridine] as the molecule, how does the ED50 read?
Its ED50 is greater than 50 mg/kg.

Which ED50 does the source give for `Cc1ccc(C(C)(C)N2CC[C@@](CCc3ccc(C#N)cc3)(C(O)(C(F)(F)F)C(F)(F)F)C2)cn1` [Compound 165, (R)-4-(2-(3-(1,1,1,3,3,3-hexafluoro-2-hydroxypropan-2-yl)-1-(2-(6-methylpyridin-3-yl)propan-2-yl)pyrrolidin-3-yl)ethyl) benzonitrile] here?
The ED50 was no more than 30 mg/kg.

`Cc1ccc(C(C)(C)N2CC[C@@](CCc3ccc(C#N)cc3)(C(=O)C(F)(F)F)C2)cn1` [Compound 166, (R)-4-(2-(1-(2-(6-methylpyridin-3-yl)propan-2-yl)-3-(2,2,2-trifluoroacetyl)pyrrolidin-3-yl)ethyl) benzonitrile] was tested. Which ED50 did it give?
Its ED50 is no more than 30 mg/kg.

`CC(C)(c1ccccn1)N1CC[C@](CO)(CCc2ccc3nonc3c2)C1` [Compound 167, (R)-(3-(2-(benzo[c][1,2,5]oxadiazol-5-yl)ethyl)-1-(2-(pyridin-2-yl)propan-2-yl)pyrrolidin-3-yl)methanol] was tested. Which ED50 did it give?
The ED50 was no more than 30 mg/kg.

Which ED50 does the source give for `CC(C)(c1ccccn1)N1CC[C@](CO)(CCc2ccc3ccoc3c2)C1` [Compound 168, (R)-(3-(2-(benzofuran-6-yl)ethyl)-1-(2-(pyridin-2-yl)propan-2-yl)pyrrolidin-3-yl)methanol] here?
The ED50 was no more than 30 mg/kg.

Which ED50 does the source give for `CC(C)(c1ccccn1)N1CC[C@@](CCc2ccc3nonc3c2)(CS(C)(=O)=O)C1` [Compound 169, (R)-5-(2-(3-((methylsulfonyl)methyl)-1-(2-(pyridin-2-yl)propan-2-yl)pyrrolidin-3-yl)ethyl)benzo[c] [1,2,5]oxadiazole] here?
Its ED50 is greater than 50 mg/kg.

`CC(C)(c1ccccn1)N1CC[C@@](CCc2ccc3ccoc3c2)(C(N)=O)C1` [Compound 174, (R)-3-(2-(benzofuran-6-yl)ethyl)-1-(2-(pyridin-2-yl)propan-2-yl)pyrrolidine-3-carboxamide] was tested. Which ED50 did it give?
Its ED50 is no more than 30 mg/kg.

Which ED50 does the source give for `CC(C)(c1ccccn1)N1CC[C@](C#N)(CCc2ccc(F)c(F)c2)C1` [Compound 175, (R)-3-(3,4-difluorophenethyl)-1-(2-(pyridin-2-yl)propan-2-yl)pyrrolidine-3-carbonitrile] here?
Its ED50 is greater than 50 mg/kg.

`CC(C)(c1ccccn1)N1CC[C@](C#N)(CCc2ccc3nonc3c2)C1` [Compound 178, (R)-3-(2-(benzo[c][1,2,5]oxadiazol-5-yl)ethyl)-1-(2-(pyridin-2-yl)propan-2-yl)pyrrolidine-3-carbonitrile] was tested. Which ED50 did it give?
Its ED50 is greater than 50 mg/kg.

With `CC(C)(c1ccccn1)N1CC[C@](C#N)(CCc2ccc(C#N)cc2)C1` [Compound 179, (R)-3-(4-cyanophenethyl)-1-(2-(pyridin-2-yl)propan-2-yl)pyrrolidine-3-carbonitrile] as the molecule, how does the ED50 read?
The ED50 was greater than 50 mg/kg.

`CC(C)(c1ccccn1)N1CC[C@](C#N)(CCc2ccc3ccoc3c2)C1` [Compound 180, (R)-3-(2-(benzofuran-6-yl)ethyl)-1-(2-(pyridin-2-yl)propan-2-yl)pyrrolidine-3-carbonitrile] was tested. Which ED50 did it give?
Its ED50 is greater than 50 mg/kg.

Which ED50 does the source give for `CC(C)(c1ccccn1)N1CC[C@@](CCc2ccc3nonc3c2)(c2nn[nH]n2)C1` [Compound 181, (R)-5-(2-(1-(2-(pyridin-2-yl)propan-2-yl)-3-(2H-tetrazol-5-yl)pyrrolidin-3-yl)ethyl) benzo[c] [1,2,5]oxadiazole] here?
The ED50 was greater than 50 mg/kg.

Which ED50 does the source give for `CC(C)(c1ccccn1)N1CC[C@@](CCc2ccc(C#N)cc2)(c2nn[nH]n2)C1` [Compound 182, (R)-4-(2-(1-(2-(pyridin-2-yl)propan-2-yl)-3-(2H-tetrazol-5-yl)pyrrolidin-3-yl)ethyl) benzonitrile] here?
The ED50 was greater than 50 mg/kg.

For `CC(C)(c1ccccn1)N1CC[C@@](CCc2ccc3ccoc3c2)(c2nn[nH]n2)C1` [Compound 183, (R)-2-(2-(3-(2-(benzofuran-6-yl)ethyl)-3-(2H-tetrazol-5-yl)pyrrolidin-1-yl)propan-2-yl)pyridine], which ED50 is on record?
Its ED50 is greater than 50 mg/kg.

`CC(C)(c1ccccn1)N1CC[C@](CO)(CCc2cnc3ccccc3n2)C1` [Compound 184, (R)-(1-(2-(pyridin-2-yl)propan-2-yl)-3-(2-(quinoxalin-2-yl)ethyl)pyrrolidin-3-yl)methanol] was tested. Which ED50 did it give?
The ED50 was greater than 50 mg/kg.
